Assay results as given in US5348953A, “Substituted azetidinones as anti-inflammatory and antidegenerative agents” (Merck & Co., Inc., priority 1992, dated 1994).

Target: T1, HUMAN PROTEINASE 3 (Homo sapiens, UniProt P24158)
T1 sequence (P24158 28-256): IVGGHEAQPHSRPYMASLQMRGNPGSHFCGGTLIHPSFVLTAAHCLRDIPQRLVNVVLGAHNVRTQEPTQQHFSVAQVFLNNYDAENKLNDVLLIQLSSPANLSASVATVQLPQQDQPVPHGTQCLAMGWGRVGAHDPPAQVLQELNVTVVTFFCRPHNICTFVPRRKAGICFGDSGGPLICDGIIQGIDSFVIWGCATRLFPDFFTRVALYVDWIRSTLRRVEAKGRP
Test: Inhibition of PR3 catalyzed hydrolysis of MeO-Succ-AAPV-pNA
Type: biochemical
Details: 45 mM TES pH 7.5, 450 mM NaCl, 10% DMSO; 0.2 mM substrate (TABLE 2); read-out: SORC (second order rate constant, kobs/I)
Experimental: The PR3 catalyzed hydrolysis of MeO-Succ-AAPV-pNA was measured in a spectrophotometer monitoring absorbance at 410 n,m. The enzymatic activity was determined in 45 mM TES at pH 7.5, 450 mM NaCl and 10% DMSO. The data were fit by non-linear regression to equation 1 to obtain the initial rates. The nonlinear progress curves observed with time dependent inhibitors were fit to equation 2 to obtain the first order rate constant Kobs. Results were expressed as kobs/I which is the second order rate constant (SORC) in per mole per second for inactivation of the enzyme.
EQN 2 Y=vs *X+[(vo -vs) (1-e^(-K.sbsp.o^*X))/Ko
Kinetic constants for the inhibition of PR3 catalyzed hydrolysis of 0.2 mM MoO-succ-AAPV-pNA were determined by varying the concentration of inhibitor present in the reaction vessel.

Row | Structure (SMILES) | kinact/KI [M⁻¹ s⁻¹]
1 | CCC[C@@H](NC(=O)N1C(=O)C(CC)(CC)[C@@H]1OCC(=O)N1CCN(C)CC1)c1ccc(C)cc1 [R2=4-Me; R5=H; Z=--Me, 2-(S)-[2-[2-(4-Methyl)piperazin-1-yl]-2-oxoethoxy]-3,-3-diethyl-N-[1-(R)-(4-methylphenyl)-butyl]4-oxo-1-azetidinecarboxamide] | 14800
2 | CCC[C@@H](NC(=O)N1C(=O)C(CC)(CC)[C@@H]1OCC(=O)N(CC)CCN(C)CCOC)c1ccc(C)cc1 [2-(S)-[2-[[2-((2-Methoxyethyl)-methylamino)ethyl]ethylamino]-2-oxoethoxy]-3,3-diethyl-N-[1-(R)-(4methylphenyl)butyl]-4-oxo-1-azetidinecarboxamide] | 13700
3 | CCC[C@@H](NC(=O)N1C(=O)C(CC)(CC)[C@@H]1OCC(=O)N(CC)CCN(C)C)c1ccc(C)cc1 [Y=N(Et)CH2 CH2; R5=H; R7=Me; R8=Me, 2-(S)-[2-[[2-(Dimethylamino)ethyl]ethylamino]-2-oxoethoxy]-3,3-diethyl-N-[1-(R)-(4-methylphenyl)butyl]-4-oxo-1-azetidinecarboxamide] | 7900

Test system: not listed separately
Test: Extended storage of the L-malic acid salt at rt
Type: physicochemical
Details: not given
Source text: NMR (CDCl3 δ from TMS): 0.9-1.0 (m, 6H), 1.0-1.1 (m, 6H), 1.2-1.4 (m, 2H), 1.6-1.95(2 m's, 6H), 2.30 (s, 3H), 2.6-2.9 (2 m's, 4H), 2.92 and 2.94 (2 s, 3H), 3.2-3.4 (m, 2H), 3.52 (br t, 2H, J=8 Hz), 4.5-4.8 (m, 3H), 5.11 (br s, 1H), 7.04 (2 d's, 1H, J=8Hz), 7.13 (br S, 4H).
The material prepared as described above in Example 20, Step A was hydrogenated as described in Example 19, Step B to afford the L-malic acid salt of 2-(S)-[2-[[2-aminoethyl]-ethylamino]-2-oxoethoxy]-3,3-diethyl-N-[1-(R)-(4- methylphenyl)butyl]-4-oxo-1-azetidinecarboxamide as an oil. […] This process could be evaluated by HPLC analysis.

Row | Structure (SMILES) | stability upon storage
4 | CCC[C@@H](NC(=O)N1C(=O)C(CC)(CC)[C@@H]1OCC(=O)N(CC)CCN)c1ccc(C)cc1 [Example 20, 2-(S)-[2-[[2-Aminoethyl]-ethylamino]-2-oxoethoxy]-3,3-diethyl-N-[1-(R)-(4-methylphenyl)butyl]-4-oxo-1-azetidinecarboxamide] | rearranged upon storage to an equilibrium mixture of isomers
5 | CCC[C@@H](NC(=O)N1C(=O)C(CC)(CC)[C@@H]1OCC(=O)N(CC)CCNC)c1ccc(C)cc1 [Example 19, 2-(S)-[2-[[2-Methylaminoethyl]-ethylamino]-2-oxoethoxy]-3,3-diethyl-N-[1-(R)-(4-methylphenyl)butyl]-4-oxo-1-azetidinecarboxamide] | rearranges to an isomeric equilibrium mixture

Target: T2, Human Polymorphonuclear Leukocyte Elastase (Homo sapiens, UniProt P08246)
T2 construct: Crude extract of human polymorphonuclear leukocytes (PMN) containing elastase activity; from tissue; host or cells: human polymorphonuclear leukocytes (crude extract)
T2 sequence (P08246 30-267): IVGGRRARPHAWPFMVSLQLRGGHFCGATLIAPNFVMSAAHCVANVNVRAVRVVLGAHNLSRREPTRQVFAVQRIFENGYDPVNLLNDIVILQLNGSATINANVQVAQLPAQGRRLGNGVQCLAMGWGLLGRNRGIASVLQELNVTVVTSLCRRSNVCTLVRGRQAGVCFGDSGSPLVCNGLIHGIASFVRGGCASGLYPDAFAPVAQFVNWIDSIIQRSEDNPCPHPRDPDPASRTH
Test: Inhibition of human polymorphonuclear leukocyte elastase via hydrolysis of Boc-AAPAN or Boc-AAPVN
Type: biochemical
Details: pH 7.5; second order rate constant for inactivation; Formula A, M n-propyl, R2 4-methyl (TABLE 1); read-out: kobs /[I]
Experimental: Enzyme Assays for the Inhibition of Human Polymorphonuclear Leukocyte
Elastase Via Hydrolysis of
N-t-Boc-alanyl-alanyl-prolylalanine-p-nitroanilide (Boc-AAPAN) or
N-t-Boc-alanyl-prolylvaline-p-nitroanilide (Boc-AAPVN) Reagent:
0.05M TES (N-tris[hydroxymethyl]methyl-2-amino-ethanesulfonic acid) Buffer, pH 7.5.
0.2 mM Boc-AAPAN or Boc-AAPVN.
To prepare substrate, the solid was first dissolved in 10.0 ml DMSO. Buffer at pH 7.5 was then added to a final volume of 100 ml.
Crude extract of human polymorphonuclear leukocytes (PMN) containing elastase activity.
Inhibitors (azetidinones) to be tested dissolved in DMSO just before use.
To 1.0 ml of 0.2 mM Boc-AAPAN in a cuvette, 0.01-0.1 ml of DMSO with or without inhibitor was added. After mixing, a measurement was taken at 410 mμ to detect any spontaneous hydrolysis due to presence of test compound. 0.05 Milliliters of PMN extract was then added and the ΔOD/min at 410 mμ was measured and recorded. Beckman model 35 spectrophotometer was used.
Results in Table I were reported as ID50, effective dosage in micrograms per milliliter (μg/ml) for 50% inhibition of the enzyme activity 2 minutes after zero time.
Results were also expressed as Ki, the micromolar concentration of the inhibitor (μM) giving 50% of the control enzyme activity; or as ^k obs/I which is the second order rate constant in per mole per second for inactivation of the enzyme.
The elastase activity in the crude PMN extract may vary from one preparation to another. A control of each new batch is run, and the volume added in the assay procedure is adjusted according to activity.

Row | Structure (SMILES) | kinact/KI [M⁻¹ s⁻¹]
6 | CCC[C@@H](NC(=O)N1C(=O)C(CC)(CC)[C@@H]1OCC(=O)N(CC)CCN(CCOCC)C(C)C)c1ccc(C)cc1 | 195000
7 | CCC[C@@H](NC(=O)N1C(=O)C(CC)(CC)[C@@H]1OCC(=O)N(CCC)CCN(CCOCC)C(C)C)c1ccc(C)cc1 [2-(S)-[2-[[2-((2-Ethoxyethyl)-isopropylamino)ethyl]propylamino]-2-oxoethoxy]-3,3-diethyl-N-[1-(R)-(4-methylphenyl)butyl]-4-oxo-1-azetidinecarboxamide] | 185000
8 | CCC[C@@H](NC(=O)N1C(=O)C(CC)(CC)[C@@H]1OCC(=O)N(CC)CCN(CC)CC)c1ccc(C)cc1 [Y=N(Et)CH2 CH2; R5=H; R7=Et; R8=Et, 2-(S)-[2-[[2-(Diethylamino)ethyl]ethylamino]-2-oxoethoxy]-3,3-di ethyl-N-[1-(R)-(4-methylphenyl)butyl]-4-oxo-1-azetidinecarboxamide] | 177000

Continued, values first:

Row | kinact/KI [M⁻¹ s⁻¹] | Structure (SMILES)
9 | 1.8e+06 | CCC[C@@H](NC(=O)N1C(=O)C(CC)(CC)[C@@H]1O[C@@H](C)C(=O)N(C)CCN(CC)CC)c1ccc(C)cc1 [Y=N(Me)CH2 CH2; R5=Me; R7=Et; R8=Et, 2-(S)-[2-[[2-(Diethylamino)ethyl]methylamino]-2-oxo-(1-(S)-methyl)ethoxy]-3,3-diethyl-N-[1-(R)-(4-methylphenyl)butyl]-4-oxo-1-azetidinecarboxamide]
10 | 125000 | CCC[C@@H](NC(=O)N1C(=O)C(CC)(CC)[C@@H]1OCC(=O)N(C)C)c1ccc(C)cc1 [Y=co-valent bond; R5=H; R7=Me; R8=Me]
11 | 1.04e+06 | CCC[C@@H](NC(=O)N1C(=O)C(CC)(CC)[C@@H]1O[C@@H](C)C(=O)NCCN(C)C)c1ccc(C)cc1 [Y=NHCH2 CH2; R5=Me; R7=Me; R8=Me, 2-(S)-[2-[[2-(Dimethylamino)ethyl]amino]-2-oxo-(1-(S)-methyl)ethoxy]-3,3-diethyl-N-[1-(R)-(4-methylphenyl)butyl]-4-oxo-1-azetidinecarboxamide]
12 | 115000 | CCC[C@@H](NC(=O)N1C(=O)C(CC)(CC)[C@@H]1OCC(=O)N(C)CCCN(C)C)c1ccc(C)cc1 [Y=N(Me)CH2 CH2 CH2; R5=H; R7=Me; R8=Me, 2-(S)-[2-[[3-(Dimethylamino)propyl]methylamino]-2-oxoethoxy]-3,3-diethyl-N-[1-(R)-(4-methylphenyl)butyl]-4-oxo-1-azetidinecarboxamide]
13 | 1.77e+06 | CCC[C@@H](NC(=O)N1C(=O)C(CC)(CC)[C@@H]1O[C@@H](C)C(=O)N(CC)CCN(C)C)c1ccc(C)cc1 [Y=N(Et)CH2 CH2; R5=Me; R7=Me; R8=Me, 2-(S)-[2-[[2-(Dimethylamino)ethyl]ethylamino]-2-oxo-(1-(S)-methyl)ethoxy]-3,3-diethyl-N-[1-(R)-(4-methylphenyl)butyl]-4-oxo-1-azetidinecarboxamide]
14 | 105000 | CCC[C@@H](NC(=O)N1C(=O)C(CC)(CC)[C@@H]1OCC(=O)NCCN(C(C)C)C(C)C)c1ccc(C)cc1 [Y=NHCH2 CH2; R5=H; R7=iPr; R8=iPr, 2-(S)-[2-[[2-(Diisopropylamino)ethyl]amino]-2-oxoethoxy]-3,3-diethyl-N-[1-(R)-(4-methylphenyl)butyl]-4-oxo-1-azetidinecarboxamide]
15 | 114000 | CCC[C@@H](NC(=O)N1C(=O)C(CC)(CC)[C@@H]1OCC(=O)N(C)CCN(C)C)c1ccc(C)cc1 [Y=N(Me)CH2 CH2; R5=H; R7=Me; R8=Me, 2-(S)-[2-[[2-(Dimethylamino)ethyl]methylamino]-2-oxoethoxy]-3,3-diethyl-N-[1-(R)-(4-methylphenyl)butyl]-4-oxo-1-azetidinecarboxamide]
16 | 115000 | CCC[C@@H](NC(=O)N1C(=O)C(CC)(CC)[C@@H]1OCC(=O)N(C)CCN(C(C)C)C(C)C)c1ccc(C)cc1 [Y=N(Me)CH2 CH2; R5=H; R7=iPr; R8=iPr, 2-(S)-[2-[[2-(Diisopropylamino)ethyl]methylamino]-2-oxoethoxy]-3,3-diethyl-N-[1-(R)-(4-methylphenyl)butyl]-4-oxo-1-azetidinecarboxamide]
17 | 120000 | CCC[C@@H](NC(=O)N1C(=O)C(CC)(CC)[C@@H]1OCC(=O)N(CC)CCN(C)C)c1ccc(C)cc1 [Y=N(Et)CH2 CH2; R5=H; R7=Me; R8=Me, 2-(S)-[2-[[2-(Dimethylamino)ethyl]ethylamino]-2-oxoethoxy]-3,3-diethyl-N-[1-(R)-(4-methylphenyl)butyl]-4-oxo-1-azetidinecarboxamide]

Same assay, conditions: pH 7.5; second order rate constant; Formula A, M n-propyl, R2 3,4-methylenedioxy; read-out: kobs /[I]

Row | Structure (SMILES) | kinact/KI [M⁻¹ s⁻¹]
18 | CCC[C@@H](NC(=O)N1C(=O)C(CC)(CC)[C@@H]1OCC(=O)N(CC)CCN(C)C)c1ccc2c(c1)OCO2 [2-(S)-[2-[[2-(Dimethylamino)ethy]-ethylamino]-2-oxoethoxy]-3,3-diethyl-N-[1-(R)-(3,4-methylenedioxyphenyl)butyl]-4-oxo-1-azetidinecarboxamide] | 425000

Same assay, conditions: pH 7.5; second order rate constant; Formula A, M n-propyl, R4 piperazine amide with substituent Z; read-out: kobs /[I]

Row | Structure (SMILES) | kinact/KI [M⁻¹ s⁻¹]
19 | CCC[C@@H](NC(=O)N1C(=O)C(CC)(CC)[C@@H]1OCC(=O)N1CCN(C)CC1)c1ccc(C)cc1 [R2=4-Me; R5=H; Z=--Me, 2-(S)-[2-[2-(4-Methyl)piperazin-1-yl]-2-oxoethoxy]-3,-3-diethyl-N-[1-(R)-(4-methylphenyl)-butyl]4-oxo-1-azetidinecarboxamide] | 150000
20 | CCC[C@@H](NC(=O)N1C(=O)C(CC)(CC)[C@@H]1OCC(=O)N1CCNCC1)c1ccc(C)cc1 [R2=4-Me; R5=H; Z=H] | 250000
